Data as given in patent US10925855B2, “Compositions comprising water dispersible nanoparticles of a retinoid compound” (GALDERMA RESEARCH & DEVELOPMENT, priority 2015, dated 2021).

Columns and labels:
Precipitation test = type: physicochemical; conditions: every tested organic solvent at 1 mg/mL concentration
Procedure: 1 mg/ml solutions of compound A were prepared in each appropriate solvent.

[1] = Redispersibility in water; type: physicochemical; conditions: addition of water at room temperature

In the case of `CC(C)(C)c1cc(-c2cc(-c3ccc(C(=O)O)cc3)ccc2OCCO)ccc1N1CCCC1` [Compound A, 3″-tert-butyl-4′-(2-hydroxyethoxy)-4″-pyrrolidin-1-yl[1,1′;3′,1″]-terphenyl-4-carboxylic acid], the “precipitation on addition of anti-solvent” value (Precipitation test) is reported as “precipitated” and the Redispersibility [1] is reported as “not wetted by water”.
